Data: ChEMBL document CHEMBL5226310, “Synthesis and Characterization of Novel Mono- and Bis-Guanyl Hydrazones as Potent and Selective ASIC1 Inhibitors Able to Reduce Brain Ischemic Insult” (J Med Chem, 2021)
Each block holds one compound with its values, some of them ahead of it. The source made the active and inactive calls. The calls are words filed in the database; no cut-off is given here.

Columns and labels:
[1] = target: T1, Acid-sensing ion channel 1 (Homo sapiens, UniProt P78348); experiment: Inhibition of human ASIC1a in HEK293 cells assessed as inward proton-gated current at pH 6.0 incubated with compound followed by PcTx1 addition by patch-clamp electrophysiology; type: cell-based
T1 sequence (P78348 whole entry): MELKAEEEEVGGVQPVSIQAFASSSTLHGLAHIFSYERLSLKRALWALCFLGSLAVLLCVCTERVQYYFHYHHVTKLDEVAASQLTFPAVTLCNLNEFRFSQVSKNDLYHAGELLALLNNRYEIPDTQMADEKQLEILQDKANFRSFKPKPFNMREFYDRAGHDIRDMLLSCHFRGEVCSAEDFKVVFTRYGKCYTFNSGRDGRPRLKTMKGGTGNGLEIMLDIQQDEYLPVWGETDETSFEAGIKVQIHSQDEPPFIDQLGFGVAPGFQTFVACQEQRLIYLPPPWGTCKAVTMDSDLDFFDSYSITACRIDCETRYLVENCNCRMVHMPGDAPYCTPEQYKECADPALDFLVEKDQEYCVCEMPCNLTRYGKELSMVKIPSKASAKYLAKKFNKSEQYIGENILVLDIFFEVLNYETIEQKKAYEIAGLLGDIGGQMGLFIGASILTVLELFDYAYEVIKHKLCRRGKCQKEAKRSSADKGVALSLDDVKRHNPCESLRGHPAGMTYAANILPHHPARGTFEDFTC

[2] = target: T2, Acid-sensing ion channel 1 (Mus musculus) (UniProt Q6NXK8); experiment: Inhibition of mouse ASIC1a expressed in genetically engineered-CHO-K1 cells at 10 uM preincubated for 10 mins at pH 7.4 followed by cell stimulation with proton injection at pH 6.5 by electro-chromic fluorescence voltage sensor-based assay relative to control
T2 sequence (whole entry): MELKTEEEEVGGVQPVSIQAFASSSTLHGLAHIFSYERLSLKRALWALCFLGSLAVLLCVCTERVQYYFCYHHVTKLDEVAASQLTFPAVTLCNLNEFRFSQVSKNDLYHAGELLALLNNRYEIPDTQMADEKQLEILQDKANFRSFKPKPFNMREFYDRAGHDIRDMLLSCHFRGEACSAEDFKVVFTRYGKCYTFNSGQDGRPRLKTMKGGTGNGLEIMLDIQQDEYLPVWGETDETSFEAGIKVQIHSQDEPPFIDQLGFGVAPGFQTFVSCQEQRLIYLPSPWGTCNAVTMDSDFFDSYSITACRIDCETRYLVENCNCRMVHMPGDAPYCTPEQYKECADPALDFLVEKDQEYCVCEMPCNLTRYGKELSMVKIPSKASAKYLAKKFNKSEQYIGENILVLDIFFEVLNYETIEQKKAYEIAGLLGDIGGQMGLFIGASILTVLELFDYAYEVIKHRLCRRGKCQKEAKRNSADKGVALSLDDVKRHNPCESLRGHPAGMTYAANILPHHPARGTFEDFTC

[3] = target: T3, Acid-sensing ion channel 2 (Mus musculus) (UniProt Q925H0); experiment: Inhibition of mouse ASIC2a expressed in genetically engineered-CHO-K1 cells at 10 uM preincubated for 10 mins at pH 7.4 followed by cell stimulation with proton injection at pH 6.5 by electro-chromic fluorescence voltage sensor-based assay relative to control
T3 sequence (whole entry): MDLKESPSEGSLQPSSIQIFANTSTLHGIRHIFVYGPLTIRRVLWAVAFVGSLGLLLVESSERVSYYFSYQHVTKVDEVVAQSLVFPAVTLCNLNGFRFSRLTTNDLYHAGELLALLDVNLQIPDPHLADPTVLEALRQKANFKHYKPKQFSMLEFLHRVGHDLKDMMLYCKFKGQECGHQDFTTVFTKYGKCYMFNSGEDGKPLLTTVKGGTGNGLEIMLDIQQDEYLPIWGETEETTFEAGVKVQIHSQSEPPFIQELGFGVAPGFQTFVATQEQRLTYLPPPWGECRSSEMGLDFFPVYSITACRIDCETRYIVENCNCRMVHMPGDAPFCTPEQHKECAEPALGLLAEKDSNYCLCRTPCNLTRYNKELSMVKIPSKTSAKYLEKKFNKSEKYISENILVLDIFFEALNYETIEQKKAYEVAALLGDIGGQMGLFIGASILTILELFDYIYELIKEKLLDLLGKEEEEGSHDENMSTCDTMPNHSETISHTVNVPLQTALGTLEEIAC

[4] = test system: Cortical neurone; experiment: Neuroprotective activity in OGD/Rx-induced E16 Wistar rat Primary cortical neurons assessed as increase in cell viability at 0.38 uM incubated for 3 hrs during OGD followed by reoxygenation with compound re-addition measured after 21 hrs by MTT assay; type: functional, cell-based; conditions: time 24.0 hrs
[5] = test system: Mus musculus; experiment: Neuroprotective activity in mouse model of middle cerebral artery occlusion-induced transient brain ischemia assessed as decrease in ischemic volume at 0.8 mg/kg, ip administered thrice measured after 24 hrs (reference value: 58 +/- 2.6 %); type: functional; set-up: scale not given: the % may be the effect or the level left
[6] = test system: Mus musculus; experiment: Neuroprotective activity in mouse model of middle cerebral artery occlusion-induced transient brain ischemia assessed as reduction in neurological deficits at 0.8 mg/kg, ip administered thrice measured after 24 hrs; type: functional, organism-based
[7] = target: T4, Acid-sensing ion channel 1 (Homo sapiens) (UniProt P78348); experiment: Inhibition of ASIC1a in acid stimulated-human Neural Progenitor Cells assessed as reduction in current amplitude at pH 6.5 at 10 uM measured for 5 mins with acid stimulation for every 2 mins by electrophysiology relative to control; type: cell-based; conditions: Neural Progenitor Cell
T4 sequence (whole entry): T1 sequence (P78348 whole entry)

[8] = target: T4, Acid-sensing ion channel 1 (Homo sapiens); experiment: Inhibition of ASIC1a in acid stimulated-human Neural Progenitor Cells assessed as reduction in current amplitude at pH 6.5 at 10 uM measured for 5 mins with acid stimulation for every 2 mins by electrophysiology (reference value: 92.41 +/- 33.66 pA); type: cell-based; conditions: Neural Progenitor Cell
[9] = test system: Cortical neurone; experiment: Neuroprotective activity in OGD/Rx-induced E16 Wistar rat Primary cortical neurons assessed as increase in cell viability at 0.4 uM incubated for 3 hrs during OGD followed by reoxygenation with compound re-addition measured after 21 hrs by MTT assay; type: functional, cell-based; conditions: time 24.0 hrs
[10] = test system: Cortical neurone; experiment: Neuroprotective activity in OGD/Rx-induced E16 Wistar rat Primary cortical neurons assessed as increase in cell viability at 0.4 uM incubated for 3 hrs during OGD followed by compound removal and reoxygenation measured after 21 hrs by MTT assay; type: functional, cell-based
[11] = test system: Cortical neurone; experiment: Neuroprotective activity in OGD/Rx-induced E16 Wistar rat Primary cortical neurons assessed as increase in cell viability incubated for 3 hrs during OGD followed by reoxygenation with compound re-addition measured after 21 hrs by MTT assay; type: functional, cell-based; conditions: time 24.0 hrs
[12] = test system: Mus musculus; experiment: Neuroprotective activity in mouse model of middle cerebral artery occlusion-induced transient brain ischemia assessed as decrease in ischemic volume at 0.65 mg/kg, ip administered thrice measured after 24 hrs (reference value: 58 +/- 2.6 %); type: functional; set-up: scale not given: the % may be the effect or the level left
[13] = test system: Mus musculus; experiment: Neuroprotective activity in mouse model of middle cerebral artery occlusion-induced transient brain ischemia assessed as reduction in general neurological deficits at 0.65 mg/kg, ip administered thrice measured after 24 hrs; type: functional, organism-based
[14] = test system: Mus musculus; experiment: Neuroprotective activity in mouse model of middle cerebral artery occlusion-induced transient brain ischemia assessed as reduction in focal neurological deficits at 0.65 mg/kg, ip administered thrice measured after 24 hrs; type: functional, organism-based
[15] = test system: Mus musculus; experiment: Neuroprotective activity in mouse model of middle cerebral artery occlusion-induced transient brain ischemia assessed as ischemic volume at 6.5 mg/kg, ip administered thrice measured after 24 hrs relative to control; type: functional
[16] = test system: Mus musculus; experiment: Neuroprotective activity in mouse model of middle cerebral artery occlusion-induced transient brain ischemia assessed as ischemic volume at 0.65 mg/kg, ip administered thrice measured after 24 hrs relative to control; type: functional
[17] = test system: Mus musculus; experiment: Neuroprotective activity in mouse model of middle cerebral artery occlusion-induced transient brain ischemia assessed as reduction in ischemic volume at 0.65 mg/kg, ip administered thrice measured upto 72 hrs relative to control; type: functional; set-up: scale not given: the % may be the effect or the level left
[18] = test system: Mus musculus; experiment: Neuroprotective activity in mouse model of middle cerebral artery occlusion-induced transient brain ischemia assessed as reduction in general neurological deficits at 0.65 mg/kg, ip administered thrice measured upto 72 hrs; type: functional, organism-based
[19] = test system: Mus musculus; experiment: Neuroprotective activity in mouse model of middle cerebral artery occlusion-induced transient brain ischemia assessed as reduction in focal neurological deficits at 0.65 mg/kg, ip administered thrice measured upto 72 hrs; type: functional, organism-based
[20] = test system: Cortical neurone; experiment: Neuroprotective activity in OGD/Rx-induced E16 Wistar rat Primary cortical neurons assessed as increase in cell viability at 0.52 uM incubated for 3 hrs during OGD followed by reoxygenation with compound re-addition measured after 21 hrs by MTT assay; type: functional, cell-based; conditions: time 24.0 hrs
[21] = test system: Cortical neurone; experiment: Neuroprotective activity in OGD/Rx-induced E16 Wistar rat Primary cortical neurons assessed as increase in cell viability at 1.9 uM incubated for 3 hrs during OGD followed by reoxygenation with compound re-addition measured after 21 hrs by MTT assay; type: functional, cell-based; conditions: time 24.0 hrs
[22] = test system: Cortical neurone; experiment: Neuroprotective activity in OGD/Rx-induced E16 Wistar rat Primary cortical neurons assessed as increase in cell viability at 2.1 uM incubated for 3 hrs during OGD followed by reoxygenation with compound re-addition measured after 21 hrs by MTT assay; type: functional, cell-based; conditions: time 24.0 hrs
[23] = test system: Cortical neurone; experiment: Neuroprotective activity in OGD/Rx-induced E16 Wistar rat Primary cortical neurons assessed as increase in cell viability at 2.1 uM incubated for 3 hrs during OGD followed by compound removal and reoxygenation measured after 21 hrs by MTT assay; type: functional, cell-based
[24] = test system: Mus musculus; experiment: Neuroprotective activity in mouse model of middle cerebral artery occlusion-induced transient brain ischemia assessed as decrease in ischemic volume at 0.6 mg/kg, ip administered thrice measured after 24 hrs (reference value: 58 +/- 2.6 %); type: functional; set-up: scale not given: the % may be the effect or the level left

SMILES: Cl.Cl.N=C(N)N/N=C\c1ccc(-c2cc(-c3ccc(/C=N\NC(=N)N)cc3)[nH]n2)cc1
- IC50 [1]: 729 nM
- inhibition [2]: 9.09%
- inhibition [3]: 61.3%
- Activity [4]: Active
- Activity [5]: 40.9%
- Activity [6]: Active

SMILES: Cl.N=C(N)N/N=C\c1ccc(-c2cccc(-c3ccc(/C=N/NC(=N)N)cc3)c2)cc1
- IC50 [1]: 407 nM
- inhibition [2]: 53%
- inhibition [3]: 35.4%
- inhibition [7]: 70%
- Activity [8]: 9.37 pA
- Activity [9]: Active
- Activity [10]: Active
- Activity [11]: Dose-Dependent Effect
- Activity [12]: 34.7%
- Activity [13]: Active
- Activity [14]: Active
- Activity [15]: 50.1%
- Activity [16]: 47.1%
- Activity [17]: 35.3%
- Activity [18]: Active
- Activity [19]: Active

SMILES: COc1ccc(Cn2nc(-c3ccc(F)cc3)cc2-c2ccc(/C=N/NC(=N)N)cc2)cc1
- IC50 [1]: 1990 nM
- inhibition [3]: 40.3%
- Activity [21]: Active

Continued, in another order:

- IC50 [1]: 518 nM
- inhibition [2]: 72.9%
- inhibition [3]: 69.7%
SMILES: COc1ccc(Cn2nc(-c3ccc(/C=N/NC(=N)N)cc3)cc2-c2ccc(/C=N/NC(=N)N)cc2)cc1
- Activity [20]: Active

- IC50 [1]: 1990 nM
- inhibition [2]: 24.6%
- inhibition [3]: 86.2%
SMILES: N=C(N)N/N=C/c1ccc(-c2cc(-c3ccc(Br)cc3)n[nH]2)cc1
- Activity [22]: Active
- Activity [23]: Active
- Activity [11]: Dose-Dependent Effect
- Activity [24]: 44%
